Assay [1] has as its target Glutamate NMDA receptor. In words: Compound was evaluated in vitro in a cortical-wedge preparation for the antagonism of N-methyl-D-aspartate-induced responses. It is filed as functional.
For another assay, the system named is Mus musculus. In words: Tested for antagonism of NMDA induced lethality in neonatal mice (ip) and minimum effective dose (MED) was reported. In kind it is functional. To be noted: read-out: MED.
The subject of the next assay is Rattus norvegicus. As to the kind of experiment: Tested for antagonism of NMDA induced convulsions in neonatal rats (ip) and minimum effective dose (MED) was reported. In kind it is functional. As to conditions: read-out: MED.
Assay [2] has as its target Glutamate NMDA receptor. As to the kind of experiment: In vitro binding affinity against N-methyl-D-aspartate glutamate receptor using [3H]CGS-19,755 ligand. In kind it is protein-complex assay.

For orientation: IC50 means the concentration at which inhibition is half-maximal. Higher therefore signals weaker potency in that assay.

The structures appear in SMILES notation.

Consider `O=C(O)[C@H]1C[C@@H](Cc2nnn[nH]2)CCN1`, for which, on Glutamate NMDA receptor [1], the midpoint of inhibition, the IC50, lay at 4.2 µM. Further, the minimal effective dose came out at 5 mg/kg in the assay on Mus musculus and 20 mg/kg with Rattus norvegicus.

Turning to `O=C(O)[C@@H]1C[C@H](CCc2nn[nH]n2)CCN1`, the IC50 at Glutamate NMDA receptor [1] was determined as 8.1 µM; at Glutamate NMDA receptor [2] it was 2.28 µM. The minimal effective dose came out at 20 mg/kg in the assay on Mus musculus and 100 mg/kg with Rattus norvegicus.

Turning to `O=C(O)[C@@H]1C[C@H](CCCCc2nn[nH]n2)CCN1`, the minimal effective dose in the assay with Mus musculus is > 160 mg/kg. In addition, the IC50 at Glutamate NMDA receptor [2] is > 10 µM.

With `O=C(O)[C@@H]1C[C@H](CCCc2nn[nH]n2)CCN1`, at Glutamate NMDA receptor [1], the IC50 is 12.4 µM. For the same compound, the minimal effective dose turned out to be 10 mg/kg with Mus musculus and 100 mg/kg in the assay on Rattus norvegicus.

In the case of `O=C(O)[C@H]1C[C@H](Cc2nn[nH]n2)CCN1`, the IC50 against Glutamate NMDA receptor [1] came to 35.2 µM; on Glutamate NMDA receptor [2], 0.777 µM. In addition, in the assay with Mus musculus, the minimal effective dose turned out to be 80 mg/kg.

For `CN1CC[C@H](Cc2nn[nH]n2)C[C@@H]1C(=O)O`, the minimal effective dose with Mus musculus is > 160 mg/kg. At Glutamate NMDA receptor [2], the IC50 is > 10 µM.

In turn, `O=C(O)[C@@H]1C[C@H](CP(=O)(O)O)CCN1` [SELFOTEL] gave an IC50 on Glutamate NMDA receptor [1] of 1.7 µM. Besides, the values for the minimal effective dose with Mus musculus and with Rattus norvegicus were 1.25 mg/kg and 5 mg/kg, respectively.

The record behind these values is ChEMBL document CHEMBL1125760, “4-(Tetrazolylalkyl)piperidine-2-carboxylic acids. Potent and selective N-methyl-D-aspartic acid receptor antagonists with a short duration of action” (J Med Chem, 1991).
